# Data published in patent US20110086826A1, “LIPOSOMAL CAMPTOTHECINS AND USES THEREOF” (TEKMIRA PHARMACEUTICALS CORPORATION, priority 2000, published 2011).
# Where two headings read alike, the source gives them in different places. Marks after values point to notes of the source that are not given here.
# Columns and labels:
# [1] = Pharmacokinetic and in vivo leakage studies; parameters: species or system ICR mice; settings: plasma, i.v.
# Protocol: 5. Pharmacokinetic and in vivo leakage studies. […] Two different drug-to-lipid ratios, i.e., 0.10 (w/w) and 0.02 (w/w), were used to examine the influence of drug-to-lipid ratio and lipid dose on drug leakage and PK behavior. Encapsulated topotecan was administered at 1 mg/kg (10 or 50 mg/kg lipid) and 5 mg/kg topotecan (50 mg/kg lipid). […] Total topotecan in blood was determined by a fluorescence assay preceded by precipitation of plasma proteins. Topotecan was quantified by spectrofluorimetry at an excitation (2.5 nm slit width) and emission wavelength (2.5 nm slit width) of 380 and 518 nm, respectively. Lipid levels in plasma were determined by liquid scintillation counting of the [^3H]-CHE label.
# All parameters were derived from one or two-compartment models using WINNONLIN PK modeling software.
# Serum chemistry panel = format: in vivo, ICR mice; settings: 10 mg/kg i.v., day 3 post-injection
# Protocol: Myelosuppression and neutropenia studies. […] Empty vesicles were administered as a control. CBC and differential analysis was performed at Central Labs for Veterinarians (Langley, BC) to quantify cellular levels, ratios and morphology.
# L1210 murine leukemia = assay: Intravenous L1210 murine leukemia model; settings: for % ILS (increase in lifespan) / DRD (drug related deaths) / MWL (maximum mean weight loss) / TF (tumor free animals at end of study): L1210 i.v.
# Protocol: FIG. 3. […] L1210 cells (10^5 cells in 200 μl) were injected i.v. into the tail vein of BDF-1 mice on day 0. […] Each group consisted of 8 animals. Data is from NCTEF-005.
# (§1) In the above formula, MTD is the maximum tolerated dose, defined as that dose that causes a mean weight loss of 20% in a group of animals; and MED is the minimal effective dose, defined as the dose that produces an optimal % T/C value of ≦40 in the solid tumor models or an % ILS of 50±10% in the survival models.
# [2] = system: CT-26 murine colon metastases; assay: Intrasplenic CT-26 murine colon metastases model; settings: for % ILS (increase in lifespan) / DRD (drug related deaths) / MWL (maximum mean weight loss) / TF (tumor free animals at end of study): CT-26 i.s.
# Protocol: FIG. 4. […] CT-26 cells (10^4 cells in 50 μl) were injected into the spleen of Balb/c mice on day 0. […] Each group consisted of 8 animals. Data is from NCTEF-002.
# as §1
# [3] = system: MX-1 human breast xenografts; assay: Subcutaneous MX-1 human breast xenografts
# From the text: FIG. 5. […] Data is from NCTEF-004.
# FIG. 7. […] Data is from NCTEF-006.
# FIG. 8. […] Data is from NCTEF-009.
# [4] = Topotecan lactone species in plasma; format: in vivo, mice; settings: after only 5 minutes
# [5] = humans, daily for 5 consecutive days (d×5); cited from earlier work
# [6] = cited from earlier work
# [7] = MTD studies (weight loss over time); settings: if the drug was infused over 5-10 minutes
# Protocol: MTD studies. MTD studies were performed in the host mouse strain corresponding to each tumor model. Single dose and multidose MID were determined by monitoring weight loss over time.
# [8] = L1210, single i.v. dose, highest dose of free topotecan
# [9] = MX-1 s.c., q3dx4, 1.25 mg/kg/dose i.v.
# [10] = MX-1 s.c., q3dx4, 10 mg/kg/dose i.v.
# [11] = MX-1 s.c., q7dx3, 5 mg/kg/dose i.v.
# [12] = MX-1 s.c., q7dx3, 10 mg/kg/dose i.v.
# [13] = MX-1 s.c., single dose 5, 10 and 40 mg/kg
# [14] = MX-1 s.c., single i.v. dose 5 mg/kg
# [15] = MX-1 s.c., single i.v. dose 10 mg/kg
# [16] = MX-1 s.c., single i.v. dose 40 mg/kg
smiles,measurement,setting,value
"CC[C@@]1(O)C(=O)OCc2c1cc1n(c2=O)Cc2cc3c(CN(C)C)c(O)ccc3nc2-1 [Free, 9-dimethylaminomethyl-10-hydroxy-camptothecin]",α1/2,[1]; 1 mg/kg,0.14 h
same,β1/2,[1]; 1 mg/kg,11.8 h
same,α1/2,[1]; 5 mg/kg,0.26 h
same,β1/2,[1]; 5 mg/kg,11.4 h
same,ALT,Serum chemistry panel,13 ± 23 IU/L
same,Albumin,Serum chemistry panel,32.8 ± 1.3 g/L
same,BUN,Serum chemistry panel,9.4 ± 3.2 mmol/L
same,Bilirubin,Serum chemistry panel,3.8 ± 0.8 µmol/L
same,CPK,Serum chemistry panel,56 ± 38 IU/L
same,Creatinine,Serum chemistry panel,82 ± 18 µmol/L
same,Globulin,Serum chemistry panel,15.2 ± 1.1 g/L
same,TP,Serum chemistry panel,48.0 ± 2.1 g/L
same,long-term survivors (day 60),L1210 murine leukemia; [8],one long-term survivor
same,median survival,L1210 murine leukemia; [8],13 days
same,% ILS (increase in lifespan),L1210 murine leukemia; single i.v. dose 5 mg/kg,11%
same,DRD (drug related deaths),L1210 murine leukemia; single i.v. dose 5 mg/kg,0/8
same,MWL (maximum mean weight loss),L1210 murine leukemia; single i.v. dose 5 mg/kg,+
same,TF (tumor free animals at end of study),L1210 murine leukemia; single i.v. dose 5 mg/kg,0/8
same,% ILS (increase in lifespan),L1210 murine leukemia; single i.v. dose 10 mg/kg,22%
same,DRD (drug related deaths),L1210 murine leukemia; single i.v. dose 10 mg/kg,0/8
same,MWL (maximum mean weight loss),L1210 murine leukemia; single i.v. dose 10 mg/kg,+
same,TF (tumor free animals at end of study),L1210 murine leukemia; single i.v. dose 10 mg/kg,0/8
same,% ILS (increase in lifespan),L1210 murine leukemia; single i.v. dose 20 mg/kg,33%
same,DRD (drug related deaths),L1210 murine leukemia; single i.v. dose 20 mg/kg,0/8
same,MWL (maximum mean weight loss),L1210 murine leukemia; single i.v. dose 20 mg/kg,+
same,TF (tumor free animals at end of study),L1210 murine leukemia; single i.v. dose 20 mg/kg,0/8
same,DRD (drug related deaths),L1210 murine leukemia; single i.v. dose 30 mg/kg,0/8
same,MWL (maximum mean weight loss),L1210 murine leukemia; single i.v. dose 30 mg/kg,+
same,TF (tumor free animals at end of study),L1210 murine leukemia; single i.v. dose 30 mg/kg,0/8
same,DRD (drug related deaths),L1210 murine leukemia; single i.v. dose 40 mg/kg,0/8
same,MWL (maximum mean weight loss),L1210 murine leukemia; single i.v. dose 40 mg/kg,+
same,TF (tumor free animals at end of study),L1210 murine leukemia; single i.v. dose 40 mg/kg,0/8
same,% ILS,"[2]; CT-26, single dose, over the dose range 5-40 mg/kg",23-60%
same,% ILS (increase in lifespan),[2]; single i.v. dose 5 mg/kg,31%
same,DRD (drug related deaths),[2]; single i.v. dose 5 mg/kg,0/8
same,MWL (maximum mean weight loss),[2]; single i.v. dose 5 mg/kg,+
same,TF (tumor free animals at end of study),[2]; single i.v. dose 5 mg/kg,0/8
same,% ILS (increase in lifespan),[2]; single i.v. dose 10 mg/kg,23%
same,DRD (drug related deaths),[2]; single i.v. dose 10 mg/kg,0/8
same,MWL (maximum mean weight loss),[2]; single i.v. dose 10 mg/kg,+
same,TF (tumor free animals at end of study),[2]; single i.v. dose 10 mg/kg,0/8
same,DRD (drug related deaths),[2]; single i.v. dose 40 mg/kg,0/8
same,MWL (maximum mean weight loss),[2]; single i.v. dose 40 mg/kg,−0.4%
same,TF (tumor free animals at end of study),[2]; single i.v. dose 40 mg/kg,1/8
same,anti-tumor activity (in words),"[3]; MX-1, q7d×3, 5 or 10 mg/kg/dose",little activity was observed
same,% ILS (increase in lifespan),[3]; [9],20%
same,DRD (drug related deaths),[3]; [9],0/6
same,"LCK (log cell kill, gross)",[3]; [9],0.17
same,MWL (maximum mean weight loss),[3]; [9],+^h
same,TF (tumor free animals at end of study),[3]; [9],0/6
same,DRD (drug related deaths),[3]; [10],0/6
same,"LCK (log cell kill, gross)",[3]; [10],0.21
same,MWL (maximum mean weight loss),[3]; [10],+
same,TF (tumor free animals at end of study),[3]; [10],1/6
same,DRD (drug related deaths),[3]; [11],0/6
same,"LCK (log cell kill, gross)",[3]; [11],0.15
same,MWL (maximum mean weight loss),[3]; [11],+
same,TF (tumor free animals at end of study),[3]; [11],0/6
same,% T/C (optimal),[3]; [12],61%
same,DRD (drug related deaths),[3]; [12],0/6
same,MWL (maximum mean weight loss),[3]; [12],−0.8%
same,TF (tumor free animals at end of study),[3]; [12],0/6
same,body weight,[3]; [13],all animals gained weight
same,drug-related deaths,[3]; [13],No drug-related deaths were observed
same,% ILS (increase in lifespan),[3]; [14],0%
same,% T/C (optimal),[3]; [14],78%
same,DRD (drug related deaths),[3]; [14],0/6
same,"LCK (log cell kill, gross)",[3]; [14],0.02
same,MWL (maximum mean weight loss),[3]; [14],+
same,T − C (tumor growth delay),[3]; [14],0.2 days
same,TF (tumor free animals at end of study),[3]; [14],0/6
same,% ILS (increase in lifespan),[3]; [15],13%
same,DRD (drug related deaths),[3]; [15],0/6
same,"LCK (log cell kill, gross)",[3]; [15],0.12
same,MWL (maximum mean weight loss),[3]; [15],+
same,TF (tumor free animals at end of study),[3]; [15],0/6
same,% ILS (increase in lifespan),[3]; [16],35%
same,% T/C (optimal),[3]; [16],24%
same,DRD (drug related deaths),[3]; [16],0/6
same,"LCK (log cell kill, gross)",[3]; [16],0.35
same,MWL (maximum mean weight loss),[3]; [16],+
same,TF (tumor free animals at end of study),[3]; [16],0/6
same,topotecan present in plasma as the lactone species,[4],48%
same,MTD,[5],1.5 mg/M^2/dose
same,LD10,"[6]; mouse, in vivo",14 mg/M2/dose
same,LD10,"[6]; qd×5 schedule, Grochow et al.",~4.7 mg/kg/dose
same,"true MTD (based on weight loss), estimated",[7],~60 mg/kg
